The source of these data is ChEMBL document CHEMBL1667788, “Novel dammarane-type sapogenins from Panax ginseng berry and their biological activities” (Bioorg Med Chem Lett, 2011).

Type in all cases: functional, cell-based
One experiment concerns COLO 205. The experiment in a line: Cytotoxicity against human COLO205 cells after 72 hrs by MTT assay. As to conditions: COLO 205, 72 h.
The test system of another experiment is HepG2. The experiment in a line: Cytotoxicity against human HepG2 cells after 72 hrs by MTT assay. Conditions: HepG2, 72 h.
Another experiment deals with HL-60. The experiment in a line: Cytotoxicity against human HL60 cells after 72 hrs by MTT assay. As to conditions: HL-60, 72 h.
In a further experiment the test system is MCF7. The experiment in a line: Cytotoxicity against human MCF7 cells after 72 hrs by MTT assay. As to conditions: MCF7, 72 h.
The test system of another experiment is A549. The experiment in a line: Cytotoxicity against human A549 cells after 72 hrs by MTT assay. As to conditions: A549, 72 h.
The test system of another experiment is DU-145. Nature of the experiment: Cytotoxicity against human DU145 cells after 72 hrs by MTT assay. Conditions: DU-145, 72 h.

Take `CC(C)[C@]12CC[C@](C)(O1)[C@H]1CC[C@]3(C)[C@@H]1[C@@H](C[C@@H]1[C@@]4(C)CC[C@H](O)C(C)(C)[C@@H]4CC[C@]13C)O2`: the IC50 in the experiment with COLO 205 was 70.7 µM; in the experiment with HepG2, 64.1 µM; in the experiment on HL-60 it was 42.4 µM; with MCF7, 49 µM.

As to `CC(C)(O)CCC[C@@](C)(O)[C@H]1CC[C@]2(C)[C@@H]1[C@H](O)C[C@@H]1[C@@]3(C)CC[C@H](O)C(C)(C)[C@@H]3CC[C@]12C`, the IC50 worked out at 18.9 µM with COLO 205; 45.8 µM in the experiment on HepG2; 8.03 µM in the experiment with HL-60; 29.9 µM in the experiment with A549; 34.2 µM with MCF7.

`COC(C)(C)CCC[C@@](C)(O)[C@H]1CC[C@]2(C)[C@@H]1[C@H](O)C[C@@H]1[C@@]3(C)CC[C@H](O)C(C)(C)[C@@H]3CC[C@]12C`: the IC50 in the experiment on COLO 205 came to 14.2 µM; with DU-145, 11.8 µM; in the experiment on HepG2, 8.32 µM; in the experiment with HL-60 it was 8.48 µM; in the experiment with A549, 35.6 µM; in the experiment on MCF7, 8.34 µM.

In the case of `CC(C)=CCCC(C)(O)[C@H]1CC[C@]2(C)[C@@H]1[C@H](O)C[C@@H]1[C@@]3(C)CC[C@H](O)C(C)(C)[C@@H]3CC[C@]12C` (single isomer, unassigned), the IC50 is 49.2 µM in the experiment with COLO 205; 60.4 µM in the experiment on DU-145; 39.4 µM in the experiment with HepG2; 27.1 µM in the experiment on HL-60; 99.9 µM in the experiment on A549; 6.62 µM in the experiment with MCF7.
